Measured values published in patent US10280152B2, “Imaging of glycogen synthase kinase 3” (The General Hospital Corporation, priority 2015, dated 2019).

Columns and labels:
GSK-3 [1] = details: literature radiotracers; SB-216763 in rodents and non-human primates; cited from earlier work
[2] = tested on: other structurally similar kinases; details: cited from earlier work
[3] = Determination of Log D7.4 (1-octanol/PBS shake flask, gamma counting); assay type: physicochemical; details: 1-octanol / PBS buffer pH 7.4, n=7
Description: The measurement of lipophilicity was carried out using literature procedure. Purified and reformulated [^11C] labelled compound (1) (˜50 μL) was added to a separating funnel containing PBS buffer (pH 7.4) and 1-octanol (pre-saturated with PBS buffer) (˜20 mL each). The octanol layer was collected and dispensed into 8 centrifuge tubes (2 mL each) containing PBS buffer (2 mL each). The tubes were mixed by vortex for 2 min and then centrifuged for 5 min. Approximately 0.5 mL of the octanol layer and 1.0 mL of the aqueous from each centrifuge tube was then transferred to pre-weighed test tubes (16 in total). The tubes were capped and assayed using an automated gamma counter. The tubes were then uncapped and weighed to determine the total volume of the liquid in each. The log D7.4 of [^11C] labelled compound (1) was determined to be 2.14 (n=7).

GSK-3 [4] = test: PET imaging in rhesus monkeys; assay type: in vivo; details: for brain penetration and specific binding (in words): PET imaging in animals / non-human primate brain
Description: To determine the in vivo distribution and pharmacokinetic profile of compound (1) in higher species of nonhuman primates, compound (1) was radiolabelled with carbon-11 and the permeability of compound (1) was evaluated in the living brain using positron emission tomography. [^11C] labelled compound (1) was synthesized in 5% uncorrected radiochemical yield (relative to [^11C]CO2) by reaction of the corresponding phenolic precursor in the presence of tetrabutylammonium hydroxide in DMF with [^11C]CH3I with specific activity >2 Ci/μmol (n=15).
Bolus i.v. administration of [^11C]-labelled compound (1) in rhesus monkeys (5-7 mCi) reached a whole brain peak uptake (2 SUV) with fairly uniform brain distribution followed by a fast clearance (1 SUV at 40 min). […] Liang et al., “Discovery of [^11C]PF-367 for neuroimaging of glycogen synthase kinase 3”, J. Nucl. Med., 2015, 56(Supp. 3), 491.

GSK-3 [5] = test: PET imaging in rat; assay type: in vivo; details: rat (n=1), bolus i.v., at 1-2 min

Row | SMILES | brain uptake in vivo (in words) (GSK-3 [1]) | selectivity against other structurally similar kinases (in words) [2] | logD [3] | brain penetration and specific binding (in words) (GSK-3 [4]; listed as 11C-isotopologue of compound (1)) | brain penetration and specific binding (in words) (GSK-3 [4]; listed as [^11C] labelled compound (1)) | whole brain peak uptake (GSK-3 [4]; rhesus monkeys, bolus i.v., 5-7 mCi, baseline) [SUV] | brain uptake at 40 min (clearance) (GSK-3 [4]; rhesus monkeys, bolus i.v., baseline, 40 min) [SUV] | peak uptake (GSK-3 [4]; rhesus monkeys, co-administration with unlabelled compound (1) 0.1 mg/kg) [SUV] | binding at 40 min in all brain regions (GSK-3 [4]; rhesus monkeys, co-administration with unlabelled compound (1) 0.1 mg/kg, 40 min) [SUV] | maximum uptake (GSK-3 [5])
1 | [11CH3]n1cc(C2=C(c3ccc(Cl)cc3Cl)C(=O)NC2=O)c2ccccc21 [[^11C]SB-216763] | good brain uptake | not selective |  |  |  |  |  |  |  | 
2 | [11CH3]Oc1ccc(-c2ocnc2C(=O)NCCCn2cncn2)cc1Cl [compound (2), N-(3-(1H-1,2,4-Triazol-1-yl)propyl)-5-(3-chloro-4-[^11C]methoxyphenyl)oxazole-4-carboxamide] |  |  | 2.14 | high brain permeability and specificity | confirmed brain penetration and displaceable specific binding | 2 | 1 | 3.5 | 0.3 | about 1 SUV
